Experimental data from ChEMBL document CHEMBL1177755, “Bioactive xanthones from the stems of Cratoxylum formosum ssp. pruniflorum” (J Nat Prod, 2010).
Active and inactive are the calls of the source. The rule behind the calls is not given here.

Legend:
CV-1 [1] = test: Inhibition of RXRalpha transcriptional activity in african green monkey CV1 cells co-expressing with TREpal-tkCAT at 10 uM by reporter gene assay; assay type: cell-based; conditions: Chlorocebus aethiops
CV-1 [2] = test: Inhibition of RXRalpha transcriptional activity in african green monkey CV1 cells co-expressing with TREpal-tkCAT by reporter gene assay; assay type: cell-based; conditions: Chlorocebus aethiops

Row | SMILES | Activity (CV-1 [1]) | Activity (CV-1 [2])
1 | COc1cc2oc3cc(O)c(O)c(CCC(C)(C)O)c3c(=O)c2c(O)c1CC=C(C)C | Active | Dose-dependent effect
2 | COc1c(O)ccc2oc3c(O)ccc(O)c3c(=O)c12 | Active | Dose-dependent effect
3 | COc1cc2c(=O)c3c(O)cc(O)cc3oc2cc1O | Active | –
4 | CC(C)=CCC/C(C)=C/Cc1c(O)c(O)cc2c(=O)c3c(O)c(CC=C(C)C)c(O)cc3oc12 | Active | –
5 | CC(C)=CCc1c(O)c(CC=C(C)C)c2oc3cc(O)c(O)cc3c(=O)c2c1O | Active | –
6 | COc1cc2oc3cc(O)c(O)c(C/C=C(\C)CCC=C(C)C)c3c(=O)c2c(O)c1C/C=C(\C)CCC=C(C)C | Active | –
7 | CC(C)=CCC/C(C)=C/Cc1c(O)c(CC=C(C)C)c(O)c2c(=O)c3cc(O)c(O)cc3oc12 | Active | –
8 | COc1c(O)ccc2oc3cccc(O)c3c(=O)c12 | Active | Dose-dependent effect
9 | COc1ccc(O)c2c(=O)c3cc(O)ccc3oc12 | Active | –
